{"source": "paper PMC9182211", "about": "“Structural Investigation of the Interaction Mechanism between Chlorogenic Acid and AMPA Receptor via In Silico Approaches” (Molecules, 2022)", "biological_target": "T1, GluA1 (glutamate ionotropic receptor AMPA type subunit 1) (Homo sapiens, UniProt P42261)", "T1 construct": "gene GRIA1; Recombinant human GluA1 (AMPA subtype) protein (Abcam ab112297)", "T1 sequence (P42261 19-906)": "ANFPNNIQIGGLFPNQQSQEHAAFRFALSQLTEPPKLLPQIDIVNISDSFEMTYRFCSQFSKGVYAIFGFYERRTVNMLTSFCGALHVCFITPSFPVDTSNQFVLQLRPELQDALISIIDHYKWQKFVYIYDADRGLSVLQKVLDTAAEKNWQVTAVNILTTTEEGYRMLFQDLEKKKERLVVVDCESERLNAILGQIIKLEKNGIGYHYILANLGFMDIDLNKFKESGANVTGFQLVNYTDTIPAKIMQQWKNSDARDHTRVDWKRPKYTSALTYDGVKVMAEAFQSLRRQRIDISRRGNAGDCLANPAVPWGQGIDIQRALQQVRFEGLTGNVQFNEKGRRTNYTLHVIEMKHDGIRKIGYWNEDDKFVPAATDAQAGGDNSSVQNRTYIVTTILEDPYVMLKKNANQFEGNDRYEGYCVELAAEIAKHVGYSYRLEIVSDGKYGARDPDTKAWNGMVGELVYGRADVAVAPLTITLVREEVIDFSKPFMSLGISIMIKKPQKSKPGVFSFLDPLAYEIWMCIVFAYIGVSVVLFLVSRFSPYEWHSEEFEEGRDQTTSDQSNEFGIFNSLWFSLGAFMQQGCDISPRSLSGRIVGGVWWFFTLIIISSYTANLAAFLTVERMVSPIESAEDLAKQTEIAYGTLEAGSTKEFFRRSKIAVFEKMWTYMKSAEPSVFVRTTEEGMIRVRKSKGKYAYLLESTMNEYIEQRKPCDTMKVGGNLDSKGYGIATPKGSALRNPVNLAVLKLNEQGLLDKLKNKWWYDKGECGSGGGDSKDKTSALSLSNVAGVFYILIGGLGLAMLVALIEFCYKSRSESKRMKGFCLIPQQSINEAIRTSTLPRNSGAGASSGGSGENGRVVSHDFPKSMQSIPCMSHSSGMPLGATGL", "experiment": "SPR (Biacore T200, GluA1 immobilized on CM5 chip, steady-state fit)", "format": "binding"}
{"compound": "O=C(/C=C/c1ccc(O)c(O)c1)O[C@@H]1C[C@](O)(C(=O)O)C[C@@H](O)[C@H]1O", "note": "[CGA, (1S,3R,4R,5R)-3-[(E)-3-(3,4-dihydroxyphenyl)prop-2-enoyl]oxy-1,4,5-trihydroxycyclohexane-1-carboxylic acid]", "values": [{"measurement": "Kd", "value": 496, "unit": "µM"}]}
